In one test the target is T1, KIF5B-RET-BaF3 (Homo sapiens, UniProt P07949).
T1 construct: fused on or other part: P33176 (Kinesin-1 heavy chain)
Kind of test: Growth inhibition of KIF5B-RET-BaF3 cells stably transfected with kinase (MTS). Format: cell-based. The note with it: 48 h, read-out: KIF5B-RET (IC50/nM). In outline: (§1)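 IC50 derived from growth inhibition by MTS absorbance at 490 nm after 48 h compound exposure (top 10 μM, 1:3 steps, 8 points, 0.1% DMSO) of 2×10^4 RET-fusion (CCDC6-RET, KIF5B-RET) or wild-type BaF3 cells per well, in triplicate.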

Another test deals with T2, CCDC6-RET-BaF3 (Homo sapiens, UniProt P07949).
T2 construct: fused on or other part: Q16204 (Coiled-coil domain-containing protein 6)
T2 sequence (P07949 whole entry, change not shown, the tested form may be a part): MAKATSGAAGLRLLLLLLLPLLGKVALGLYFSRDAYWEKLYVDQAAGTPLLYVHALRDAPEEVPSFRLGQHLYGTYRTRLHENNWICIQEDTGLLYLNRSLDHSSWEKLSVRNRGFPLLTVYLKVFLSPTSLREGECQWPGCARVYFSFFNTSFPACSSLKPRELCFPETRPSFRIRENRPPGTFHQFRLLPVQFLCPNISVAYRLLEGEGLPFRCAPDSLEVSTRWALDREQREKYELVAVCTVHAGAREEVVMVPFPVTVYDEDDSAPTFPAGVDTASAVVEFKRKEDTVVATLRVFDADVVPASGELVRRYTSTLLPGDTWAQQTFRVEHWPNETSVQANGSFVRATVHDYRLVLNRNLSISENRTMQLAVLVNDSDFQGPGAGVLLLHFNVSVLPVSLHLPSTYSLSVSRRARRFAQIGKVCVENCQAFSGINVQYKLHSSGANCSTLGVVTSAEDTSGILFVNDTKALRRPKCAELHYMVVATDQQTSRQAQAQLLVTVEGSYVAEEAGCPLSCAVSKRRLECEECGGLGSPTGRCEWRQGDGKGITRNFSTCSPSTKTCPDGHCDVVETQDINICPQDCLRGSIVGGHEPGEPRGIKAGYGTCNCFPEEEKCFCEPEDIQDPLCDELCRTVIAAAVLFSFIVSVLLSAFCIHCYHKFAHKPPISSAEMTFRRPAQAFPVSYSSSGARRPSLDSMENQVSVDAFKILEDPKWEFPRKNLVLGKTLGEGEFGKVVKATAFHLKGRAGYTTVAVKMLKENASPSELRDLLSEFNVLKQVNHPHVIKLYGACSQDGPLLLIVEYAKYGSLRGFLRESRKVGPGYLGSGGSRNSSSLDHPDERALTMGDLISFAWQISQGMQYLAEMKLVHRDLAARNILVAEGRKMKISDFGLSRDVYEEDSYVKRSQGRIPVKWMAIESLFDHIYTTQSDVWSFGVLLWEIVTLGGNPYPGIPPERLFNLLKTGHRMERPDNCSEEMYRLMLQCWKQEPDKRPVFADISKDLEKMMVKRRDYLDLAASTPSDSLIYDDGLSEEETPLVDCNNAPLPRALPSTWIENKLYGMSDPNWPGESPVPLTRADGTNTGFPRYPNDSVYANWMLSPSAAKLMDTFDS
Nature of the test: Growth inhibition of CCDC6-RET-BaF3 cells stably transfected with kinase (MTS). The settings on record: 48 h, read-out: CCDC6-RET (IC50/nM). Format: cell-based. The gist of the method:
as §1

These results are taken from US11319322B2, “Substituted aryl ether compound, preparation method thereof, pharmaceutical composition and use thereof” (Xiamen University, priority 2017, dated 2022).

T1 sequence (P07949 whole entry, change not shown, the tested form may be a part): as above

On to `CN1CCN(Cc2ccc(NC(=O)c3cc(Oc4nc(-c5ccc(O)cc5)nc5c4ncn5C)ccc3Cl)cc2C(F)(F)F)CC1` [I-o-7], for which the GI50 on KIF5B-RET-BaF3 was 1210 nM; on CCDC6-RET-BaF3, 903 nM.
The like results for `Cc1ccc(Oc2cc(-c3ccncc3)nc3[nH]ccc23)cc1C(=O)Nc1cc(CN2CCN(C)CC2)cc(C(F)(F)F)c1` [V-r-1] were, in that order, 2810 nM and 2960 nM.
In the same order, the values of `CN1CCN(Cc2ccc(NC(=O)c3cc(Oc4nc(-c5cccc(Cl)c5)nc5nn(C)cc45)ccc3Cl)cc2C(F)(F)F)CC1` [IV-o-4] are 3110 nM and 4280 nM.
`Cc1ccc(Oc2nc(-c3cccc(Cl)c3)nc3nn(C)cc23)cc1C(=O)Nc1ccc(CN2CCN(C)CC2)c(C(F)(F)F)c1` [IV-n-4]: the GI50 at KIF5B-RET-BaF3 amounted to 1710 nM; at CCDC6-RET-BaF3, 3900 nM.
The like results for `Cc1ccc(Oc2nc(-c3ccsc3)nc3c2ncn3C)cc1C(=O)Nc1ccc(CN2CCN(C)CC2)c(C(F)(F)F)c1` [I-n-12] were, in that order, 1860 nM and 2030 nM.
The like results for `CN1CCN(Cc2ccc(NC(=O)c3cccc(Oc4nc(-c5ccncc5)nc5ccn(C)c45)c3)cc2C(F)(F)F)CC1` [III-l-4] were, in that order, 11.3 nM and 18.7 nM.
`Cc1ccc(C(=O)Nc2ccc(CN3CCN(C)CC3)c(C(F)(F)F)c2)cc1Oc1nc(-c2ccncc2)nc2c1cnn2C` [II-m-2]: the GI50 at KIF5B-RET-BaF3 came out at 17.8 nM; at CCDC6-RET-BaF3, 30.2 nM.
For `CC(=O)NCC1CCN(c2ccc(NC(=O)c3ccc(C)c(Oc4nc(-c5ccncc5)nc5c4cnn5C)c3)cc2C(F)(F)F)CC1` [II-v-11], the figures for the GI50 at KIF5B-RET-BaF3 and at CCDC6-RET-BaF3 were 646 nM and 546 nM, respectively.
Take `CCS(=O)(=O)NC1CCN(c2ccc(NC(=O)c3ccc(C)c(Oc4nc(-c5ccncc5)nc5c4cnn5C)c3)cc2C(F)(F)F)CC1` [II-v-15]: the results for the GI50 at KIF5B-RET-BaF3 and on CCDC6-RET-BaF3 were 135 nM and 114 nM, respectively.
In the same order, the values of `Cc1ccc(-c2nc(Oc3cc(C(=O)Nc4ccc(CN5CCN(C)CC5)c(C(F)(F)F)c4)ccc3C)c3cnn(C)c3n2)cc1` [II-m-4] are 152 nM and 848 nM.
In the case of `Cc1ccc(C(=O)Nc2cccc(C(F)(F)F)c2)cc1Oc1nc(-c2cccnc2)nc2c1cnn2C` [II-e-1], the GI50 at KIF5B-RET-BaF3 is 2240 nM; at CCDC6-RET-BaF3, 1970 nM.
For the compound `Cc1ccc(NC(=O)c2ccc(CN3CCN(C)CC3)c(C(F)(F)F)c2)cc1Oc1nc(-c2cccnc2)nc2cc[nH]c12` [III-i-1], the GI50 was found to be 2850 nM at KIF5B-RET-BaF3 and 4110 nM on CCDC6-RET-BaF3.
The like results for `Cc1ccc(Oc2nc(-c3ccoc3)nc3nn(C)cc23)cc1C(=O)Nc1ccc(CN2CCN(C)CC2)c(C(F)(F)F)c1` [IV-n-10] were, in that order, 1840 nM and 2160 nM.
`Cc1ccc(C(=O)Nc2ccc(CN3CCN(C)CC3)c(C(F)(F)F)c2)cc1Oc1nc(N2CC(C)OC(C)C2)nc2c1cnn2C` (centres unmarked) [II-m-16]: the GI50 was 84.6 nM at KIF5B-RET-BaF3 and 384 nM on CCDC6-RET-BaF3.
For `CN1CCN(Cc2ccc(NC(=O)c3cc(Oc4nc(-c5ccsc5)nc5c4ncn5C)ccc3Cl)cc2C(F)(F)F)CC1` [I-o-11], the results for the GI50 at KIF5B-RET-BaF3 and on CCDC6-RET-BaF3 were 1560 nM and 1680 nM, respectively.
The like results for `CN1CCN(Cc2cc(NC(=O)c3cccc(Oc4nc(-c5cccnc5)nc5ccn(C)c45)c3)cc(C(F)(F)F)c2)CC1` [III-p-3] were, in that order, 3380 nM and 4530 nM.
In the same order, the values of `CN1CCN(Cc2ccc(NC(=O)c3cc(Oc4nc(-c5ccc(N)cc5)nc5nn(C)cc45)ccc3Cl)cc2C(F)(F)F)CC1` [IV-o-9] are 4360 nM and 4810 nM.
The like results for `Cc1ccc(Oc2nc(-c3ccc(N)cc3)nc3nn(C)cc23)cc1C(=O)Nc1ccc(CN2CCN(C)CC2)c(C(F)(F)F)c1` [IV-n-9] were, in that order, 1570 nM and 1830 nM.
In the case of `CN1CCN(Cc2ccc(NC(=O)c3cc(Oc4cc(-c5cccnc5)nc5sccc45)ccc3Cl)cc2C(F)(F)F)CC1` [VII-o-1], the GI50 at KIF5B-RET-BaF3 came to 1630 nM; on CCDC6-RET-BaF3 it was 1570 nM.
For the compound `CN1CCN(Cc2ccc(C(=O)Nc3cc(Oc4nc(-c5cccnc5)nc5c4cnn5C)ccc3Cl)cc2C(F)(F)F)CC1` [II-k-1], the values for the GI50 at KIF5B-RET-BaF3 and on CCDC6-RET-BaF3 were 1390 nM and 2070 nM, respectively.
Turning to `Cc1ccc(C(=O)Nc2ccc(CN3CCN(C)CC3)c(C(F)(F)F)c2)cc1Oc1ncnc2c1cnn2C` [II-m-19], the GI50 came out at 124 nM on KIF5B-RET-BaF3 and 54.9 nM at CCDC6-RET-BaF3.
As to `CN1CCN(Cc2ccc(C(=O)Nc3cccc(Oc4cc(-c5ccncc5)nc5sccc45)c3)cc2C(F)(F)F)CC1` [VII-h-2], the GI50 amounted to 1080 nM on KIF5B-RET-BaF3 and 637 nM at CCDC6-RET-BaF3.
In the same order, the values of `Cc1ccc(Oc2nc(-c3cccc(O)c3)nc3c2ncn3C)cc1C(=O)Nc1ccc(CN2CCN(C)CC2)c(C(F)(F)F)c1` [I-n-7] are 1450 nM and 1560 nM.
Consider `Cc1ccc(Oc2nc(-c3ccsc3)nc3nn(C)cc23)cc1C(=O)Nc1ccc(CN2CCN(C)CC2)c(C(F)(F)F)c1` [IV-n-11], for which the GI50 on KIF5B-RET-BaF3 was found to be 4210 nM; on CCDC6-RET-BaF3, 5220 nM.
The like results for `Cc1ccc(Oc2nc(-c3ccc(O)cc3)nc3nn(C)cc23)cc1C(=O)Nc1ccc(CN2CCN(C)CC2)c(C(F)(F)F)c1` [IV-n-7] were, in that order, 3940 nM and 2810 nM.
For the compound `CCC(=O)NC1CCN(c2ccc(NC(=O)c3ccc(C)c(Oc4nc(-c5ccncc5)nc5ccn(C)c45)c3)cc2C(F)(F)F)CC1` [III-v-8], the values for the GI50 at KIF5B-RET-BaF3 and at CCDC6-RET-BaF3 were 4340 nM and 10900 nM, respectively.
The like results for `Cc1ccc(C(=O)Nc2ccc(CN3CCN(C)CC3)c(C(F)(F)F)c2)cc1Oc1nc(-c2cccc(Cl)c2)nc2c1cnn2C` [II-m-5] were, in that order, 320 nM and 807 nM.
For `CCS(=O)(=O)NC1CCN(c2ccc(NC(=O)c3ccc(C)c(Oc4nc(-c5ccncc5)nc5ccn(C)c45)c3)cc2C(F)(F)F)CC1` [III-v-11], the GI50 was 1460 nM at KIF5B-RET-BaF3 and 3330 nM at CCDC6-RET-BaF3.
The like results for `CCC(=O)NCC1CCN(c2ccc(NC(=O)c3ccc(C)c(Oc4nc(-c5cccnc5)nc5cc[nH]c45)c3)cc2C(F)(F)F)CC1` [III-v-12] were, in that order, 191 nM and 149 nM.
The like results for `Cc1ccc(NC(=O)c2ccc(CN3CCN(C)CC3)c(C(F)(F)F)c2)cc1Oc1cc(-c2ccncc2)nc2sccc12` [VII-i-2] were, in that order, 1330 nM and 1360 nM.
The like results for `CN1CCN(Cc2ccc(NC(=O)c3cc(Oc4nc(-c5ccncc5)nc5c4ncn5C)ccc3Cl)cc2C(F)(F)F)CC1` [I-o-2] were, in that order, 3.15 nM and 20.6 nM.
With `CN1CCN(Cc2ccc(C(=O)Nc3cccc(Oc4nc(-c5cccnc5)nc5c4cnn5C)c3)cc2C(F)(F)F)CC1` [II-h-1], the values for the GI50 at KIF5B-RET-BaF3 and on CCDC6-RET-BaF3 were 953 nM and 1110 nM, respectively.
The like results for `Cc1ccc(Oc2nc(-c3ccccc3)nc3c2ncn3C)cc1C(=O)Nc1ccc(CN2CCN(C)CC2)c(C(F)(F)F)c1` [I-n-4] were, in that order, 2370 nM and 2700 nM.
In the same order, the values of `CN1CCN(Cc2ccc(C(=O)Nc3cc(Oc4nc(-c5ccncc5)nc5c4cnn5C)ccc3Cl)cc2C(F)(F)F)CC1` [II-k-2] are 114 nM and 15.8 nM.
